Data taken from PubChem BioAssay AID1508591.

Conditions: rat; liver microsomes; pH 7.4; 15.0 min; 1.0 µM

SMILES | half-life
CCc1[nH]c2ccc(CNC(=O)Cc3cnc4c(C)cccn34)cc2c1C | 2.4 min
C#CCOc1ccc(-c2nnc(Nc3ccc(NC(C)=O)cc3)c3ccccc23)cc1 | > 30 min
CCN1CCC(N(Cc2ccc3c(c2)OCO3)C(=O)Nc2cc(Cl)ccc2C(=O)OC)CC1 | 6.72 min
O=C(NCCCO)c1ccc(-c2ncc3cnc(-c4cccc(F)c4)cn23)cc1 | > 30 min
Cc1cc(-c2nnc3n2CCCCC3)c(C)n1-c1ccc([N+](=O)[O-])cc1 | 2.5 min
CC1=C(C(=O)Nc2ccc(Cl)cc2)C(c2ccccc2C)n2ncc(C(=O)Nc3ccc(C)cc3)c2N1 (centres undefined) | 9.84 min
O=[S+]([O-])(Nc1ccccc1)c1ccc(NCc2ccc(Cl)cc2O)cc1 | 1.8 min
Fc1cc(Nc2nc(-c3ccncc3)nc3ccccc23)ccc1-c1cn[nH]c1 | 19 min
Cc1ccc(S(=O)(=O)Nc2ccc(Cl)cc2C(=O)Nc2nc(-c3ccccc3)cs2)cc1 | 3.4 min
CN(C)C(=O)C1CCN(c2nc(-c3ccc(Br)cc3)cs2)CC1 | > 30 min
COc1cccc(CNc2ccc(S(=O)(=O)Nc3ncccn3)cc2)c1O | > 30 min
CCC[C@H](NC(=O)/C(C#N)=C/c1cccc(Br)n1)c1ccccc1 | > 30 min
Oc1ccc(CNc2cccnc2)c2cccnc12 | 3.56 min
COC(=O)c1ccccc1C(=O)Nc1nc(-c2ccccc2)cs1 | 3 min
Nc1c(C(=O)N2CCCCC2)sc(=S)n1-c1ccccc1 | 6.6 min
O=C(NCc1cccs1)c1cn2cc(-c3ccccc3)sc2n1 | 12.7 min
CC(=O)c1ccc(N2CCN(S(=O)(=O)c3ccc4c(c3)CC(=O)N4)CC2)cc1 | > 30 min
Cc1csc2nc(-c3cccc(NC(=O)c4cccc(F)c4)c3)cn12 | 3.67 min
COc1ccc(C[C@@H]2C(=O)N[C@H](C)C(=O)N(C)[C@@H]3C(=O)N(C)[C@@H](Cc4ccc(O)c(c4)Oc4ccc(cc4)[C@H]3O)C(=O)N[C@@H](C)C(=O)N[C@H](C)C(=O)N2C)cc1 | 27.6 min
COc1c(O)cc2c(c1OC)-c1ccc(SC)c(=O)cc1C(NC(C)=O)CC2 (centres undefined) | > 30 min
O=C(C1CCN(c2nc(-c3ccc(Br)cc3)cs2)CC1)N1CCOCC1 | > 30 min
Cc1nnc2n1-c1ccc(Cl)cc1C(c1ccccc1)=NC2 | 21.2 min
Cc1noc(C)c1-c1ccc2ncnc(NCc3cccc(Cl)c3)c2c1 | 5.19 min
CC(=O)c1c(C)n(-c2ccccc2)c2ccc(O)cc12 | 17 min
CC(=O)c1c(C)[nH]c(C(=O)Nc2ccc(C)c(S(=O)(=O)N3CCCCCC3)c2)c1C | 1.9 min
COc1cccc(CNc2ccc(S(=O)(=O)Nc3cccc(-c4ccccc4)c3)cc2)c1O | 17 min

SMILES | half-life
CC1=Nc2cc(C(=O)NCCc3ccccc3)ccc2Sc2c(C)ccc(C)c21 | 1.54 min
COc1cccc2c1CCCC2CCCN1CCN(C2CCCCC2)CC1 (centres undefined) | 3.39 min
O=C(NCCCn1ccnc1)c1ccc(-c2ncc3cnc(-c4cccc(F)c4)cn23)cc1 | 22.5 min
CCCCCCCCc1ccc(CCC(N)(CO)CO)cc1 | > 30 min
Cc1cn2c(-c3cn[nH]c3)cnc2c(Nc2ccc(C(=O)N3CCNCC3)cc2F)n1 | 7 min
O=C(NC1CC1)c1nc(-c2cccnc2)c2ccccn12 | 21.8 min
COc1ccccc1Nc1cnc2ccc(-c3ccc(OC)c(OC)c3)nn12 | 6.22 min
CC(=O)N1CCc2c(sc3c2c(=O)n(-c2ccccc2)c(=O)n3Cc2cccc(C(F)(F)F)c2)C1 | 25 min
COc1ccc(NC(=O)c2[nH]c(C)c(C(C)=O)c2C)cc1S(=O)(=O)Nc1ccc(C#N)cc1 | > 30 min
COc1ccc(-c2nc(-c3c(C)noc3C)cc3c2cc(C)n3CCN(C)C)cc1OC | > 30 min
COc1ccc(NC2CCCN(C(=O)CCc3ccccc3F)C2)cc1 (centres undefined) | 2.36 min
COc1ccc(-n2c(C)cc(-c3nnc4n3CCCCC4)c2C)cc1 | 2.4 min
COc1cccc(CNc2ccc([S+](=O)([O-])Nc3ccccc3)cc2)c1Cl | 2.4 min
CN(C)c1ccc(-c2csc(N3CCC(C(N)=O)CC3)n2)cc1 | 4.12 min
CCCc1nnc(NC(=O)c2nc(S(=O)(=O)Cc3ccc(C)cc3)ncc2Cl)s1 | 5.28 min
Cc1nc2c(-c3ccccc3)cnn2c(N)c1-c1ccccc1 | > 30 min
CCc1cccc(C)c1Nc1c(-c2ccc(N(C)C)cc2)nc2ncccn12 | 4.23 min
COc1ccc2c(c1)N(C[C@H](C)CN(C)C)c1ccccc1S2 | 2.07 min
NC(=O)C1CCN(c2nc(-c3ccc4occc(=O)c4c3)cs2)CC1 | 6.19 min
CC(C)=CCNc1ncnc2nc[nH]c12 | > 30 min
Fc1ccccc1-c1nc(NCc2ccc(-c3cccnc3)cc2)c2ccccc2n1 | 5.9 min
Fc1cc(Nc2nc(-c3ccncc3)nc3ccccc23)ccc1N1CCCC1 | 5.8 min
O=C1CCCC2=C1C1(CCCC1)N=C(Nc1nc3ccccc3o1)N2 | 2.7 min
O=C(Nc1nc(-c2ccccc2)cs1)c1ccncc1NS(=O)(=O)c1ccccc1 | 13 min
COc1cc(C2CC(=O)Nc3cc4c(cc32)OCCO4)cc(Br)c1OC (centres undefined) | 2.55 min
CC(=O)Nc1ccc(-c2csc(N3CCC(C(N)=O)CC3)n2)cc1 | > 30 min

SMILES | half-life
O=[S+]([O-])(Nc1cccc2cccnc12)c1ccc(NCc2ccc(Cl)cc2O)cc1 | 2.4 min
NC(=O)N1CCCC(C(=O)N2CCCN(c3ccc(F)cc3)CC2)C1 (centres undefined) | > 30 min
Cc1ccc(Nc2nc(-c3ccncc3)nc3ccccc23)cc1F | 12 min
O=C(NCCc1cnc[nH]1)c1ccc(-c2ncc3cnc(-c4cccc(F)c4)cn23)cc1 | > 30 min
COc1ccc(NC(=O)c2cc(-c3ccc[nH]3)n[nH]2)cc1OC | > 30 min
COc1cc(/C=C(\C#N)C(=O)c2ccc(O)c(O)c2)cc(I)c1O | > 30 min
Cc1cccc(-c2[nH]c(C(C)(C)C)nc2-c2ccc3nccnc3c2)n1 | > 30 min
CCOC(=O)NNc1ccc(N(CC)CC(C)O)nn1 (centres undefined) | > 30 min
Cc1ccccc1-c1nc(NCc2ccc(-c3cccnc3)cc2)c2ccccc2n1 | 6.25 min
Cc1cccc(NC(=S)N2CCN(c3cccc(C(F)(F)F)c3)CC2)c1 | 6 min
Oc1ccc(-c2nc(C3CC3)nc3c2CCN(CC2CCCCC2)CC3)cc1 | 5.28 min
NC(=O)C1CCN(c2nc(-c3cc4ccccc4o3)cs2)CC1 | 4.21 min
CC(C)c1cc(C(C)C)c(CC(=O)NS(=O)(=O)Oc2c(C(C)C)cccc2C(C)C)c(C(C)C)c1 | 28.2 min
COc1ncc(-c2n[nH]c3c2CC(=O)N(c2ccccc2)C3)cn1 | > 30 min
Oc1ccc(CNc2cccc(F)c2F)c2cccnc12 | 6.35 min
Fc1ccc(-c2ccc(Nc3nc(-c4ccncc4)nc4ccccc34)cc2F)c(F)c1 | 23 min
CCOc1ccccc1C(=O)NC1CCN(c2cc(C)cc(C)c2)C1=O (centres undefined) | 8.98 min
O=S(=O)(c1ccccc1)N1CCCCC1CCc1ccccc1 (centres undefined) | 2.32 min
Nc1nc2c(s1)C(c1cccc(Cl)c1Cl)CC(=O)N2 (centres undefined) | 26 min
NC(=O)C1CCN(c2nc(-c3ccc(OCc4ccccc4)cc3)cs2)CC1 | 18.3 min
O=C(Nc1ccc2oc(-c3ccccc3F)nc2c1)c1ccc([N+](=O)[O-])o1 | > 30 min
Clc1ccccc1-c1nnc2sc(-c3ccc4c(c3)OCO4)nn12 | 1.7 min
CCc1ccccc1-n1c(SCC(=O)Nc2ccc(C)cc2)nc2n[nH]c(C)c2c1=N | 1.25 min
CNC(=O)C1=C(C)NC(Nc2nc3ccccc3o2)=NC1c1[nH]ncc1Cl (centres undefined) | 5.7 min
CCCCN(C)C(=O)c1c(C)sc2ccn(CCC)c(=O)c12 | 13.3 min
COc1ccc(CCN2C(=O)N(c3ccc(F)cc3)C(=O)C2CC(=O)Nc2ccc(F)c(F)c2)cc1 (centres undefined) | 4.04 min

SMILES | half-life
CCOC(=O)c1cnc2ccc(-c3cncc(NS(=O)(=O)c4ccccc4)c3)cn12 | 19 min
Cc1nn2c(c1-c1ccccc1-c1ccccc1)N(CC1CC1)CCC2 | 2.78 min
Cc1ccc(C(=O)[C@H]2CC[C@@H](C(=O)Nc3ccc(S(=O)(=O)Nc4nccs4)cc3)C2)cc1C | 2.5 min
CC(=O)c1c(C)[nH]c(C(=O)N(C)C)c1C | > 30 min
Cc1nn2c(c1-c1ccccc1OCc1ccccc1)N(C(=O)Cc1ccc3c(c1)OCO3)CCC2 | 1.41 min
O=C1CCCC2=C1C(c1ccccc1C(F)(F)F)N=C(Nc1nc3ccccc3o1)N2 (centres undefined) | 10 min
Cc1ccnc(NC(=S)N2CCN(c3ncc(C(F)(F)F)cc3Cl)CC2)c1 | > 30 min
COc1ccc2[nH]c(C[C@@H]3C[C@@H](C(C)C)[C@H](CNCc4ccccc4O)C=C3C)nc2n1 | 1.85 min
CC(C)c1ccc(OCc2nc3c(n2Cc2ccccc2)C(=O)N(CC2CCOCC2)CCN3)cc1 | 1.68 min
Cc1noc(C)c1-c1cc2c(cc(C)n2C)c(-c2cnn(C)c2)n1 | > 30 min
O=C(O)CCC(=O)Nc1nc(-c2ccccc2)cs1 | > 30 min
Cc1ccc(C)c(SC2=NS(=O)(=O)c3ccccc32)c1 | 1.21 min
Cc1ccc(-c2cc(C(=O)Nc3ccc(S(=O)(=O)Nc4ccc(C#N)cc4)cc3)c3ccccc3n2)cc1C | 15 min
NC(=O)C1CCN(c2ncc(-c3ccc4c(c3)OCCO4)s2)CC1 | 4.94 min
CC(C)(C#N)c1ccc(N2C(=O)OCc3cnc4ccc(-c5cnc6ccccc6c5)cc4c32)cc1 | 2.84 min
c1ccc(-c2nnc3n2NC(c2ccc4c(c2)OCO4)S3)cc1 (centres undefined) | > 30 min
Fc1cccc(F)c1Nc1nc(-c2ccncc2)nc2ccccc12 | 29 min
COc1cccc(-c2nc3cc(NC(=O)c4ccc(C)c([N+](=O)[O-])c4)ccc3o2)c1 | > 30 min
O=C(O)c1ccccc1-c1ccc(/C=c2\sc3nc4cc(Br)cnc4n3c2=O)o1 | 22 min
CCOc1cc2ncc(C#N)c(Nc3ccc(OCc4ccccn4)c(Cl)c3)c2cc1NC(=O)C=CCN(C)C | > 30 min
CC(C)NC(=O)c1nc(-c2ccc(Cl)nc2)c2ccccn12 | 19.6 min
CCOc1ccc(NC(=O)CSC2=Nc3ccccc3C3=NC(CC(=O)NCc4cccs4)C(=O)N23)cc1 (centres undefined) | 4.16 min
CCOc1ccc(CCNC(=O)c2cc3sccc3n2Cc2ccncc2)cc1OCC | 1.6 min
CC(=O)OCCN1C(=O)c2c(C)nc3ccc(S(=O)(=O)N4CCOCC4)cc3c2C1=O | 2.05 min
O=S(=O)(Nc1nc2ccccc2s1)c1ccc(NCc2ccc(Br)cc2O)cc1 | > 30 min
O=C(Nc1nc(-c2ccccc2)cs1)c1ccncc1NS(=O)(=O)c1ccc(F)cc1Cl | 19 min
